Laboratory results as given in US4886886A, “Substituted 1,3,4,9-tetrahydropyrano[3,4-b]indole-1-acetic acids” (American Home Products Corporation, priority 1988, dated 1989).

Experiments:
Adjuvant Edema = test: Preventative Adjuvant Edema; format: in vivo, Male Sprague Dawley rats; details: rat, given days 0, 1 and 2, edema volume on day 3; for Preventative Adjuvant Edema, percent inhibition: 25 mg/kg p.o.
Description: This test is a primary screen for anti-inflammatory drugs.
Male Sprague Dawley rats (180-200 g) are used. The animals have free access to water but food is withdrawn 18 hours before testing.
Drug Preparations and Administration:
Freund's complete adjuvant is prepared by suspending 5 mg of killed and dried Mycobacterium butyricum (Difco) in 1 mL mineral oil. The test compounds are dissolved, or suspended in 0.5% Tween 80 in distilled water according to their solubility. For primary screening all drugs are administered by gastric lavage at the arbitrary dosage of 25 mg/kg, p.o. in a volume of 0.5 mL/100 g body weight to groups of 10 animals.
The method is essentially that described by Wax et al, J. Pharmacol. Exp. Ther., 192, 166-171 (1975). Groups of rats are injected intradermally in the left hind paw with 0.1 mL of Freund's complete adjuvant. The test compound or vehicle is administered immediately before the adjuvant, 24 hours and 48 hours after the adjuvant (days 0, 1 and 2). The injected hind paw volume is measured before the injection of adjuvant and 24 hrs. after the last drug administration (day 3) by means of a plethysmometer (Buxco Electronics Inc.). The difference between the hind paw volume on day 0 and day 3 represents the edema volume. Etodolac (25 mg/kg, p.o.) is included as a positive control.
The mean edema volume (expressed as mL±SEM) is calculated for each group and the percentage protection conferred by the drug is calculated: [formula] where c is the mean edema volume for the vehicle-treated (0.5% Tween 80 in distilled water) controls and t is the mean edema volume for the drug treated group.

[1] = system: Phenylbenzoquinone-induced Writhing; test: Drug Effects on Phenylbenzoquinone-induced Writhing in Mice; format: in vivo, Male Swiss albino mice; details: mouse, 60 min before PBQ
Description: A further test used to determine the utility of the compounds of the present invention is designated: Drug Effects on Phenylbenzoquinone-induced Writhing in Mice
The objective of this test is to determine the ability of test drugs to inhibit the nociceptive (pain) response of mice injected with a chemical irritant. This test is a primary screen for both peripheral and centrally acting analgesic drugs.
Male Swiss albino mice (15-25 g). The animals are fasted for 18 hours prior to use but have free access to water.
(§1) Drug Preparation and Administration:
Drugs are dissolved or suspended according to their solubility in 0.5% Tween 80 in distilled water. They are administered by gastric gavage in a volume of 5 mL/kg. For primary screening all drugs are administered at the arbitary dosage of 25 mg/kg, p.o. to a group of 10 mice.
A modification of the method of Siegmund et al, Proc. Soc. Exp. Biol. Med., 95, 729-731 […] is used. Groups of 5 mice are dosed with the test compound or vehicle control. Sixty minutes later the animals are injected i.p. with 0.3 mL/20 g body weight of a 0.02% solution of phenylbenzoquinone (PBQ; 2-phenyl-1,4-benzoquinone) and placed in individual observation boxes. The number of writhing or abdominal squirming movements made by each mouse during the following 15 min. period is counted. The experiment is repeated with another group of 5 mice and the mean number of writhes per mouse for a group of 10 mice is calculated.
Drug treated and vehicle-treated control groups are compared and the percentage protection conferred by the drug is calculated: [formula]
where c=mean number of writhes in the control group
where t=mean number of writhes in the test drug group

[2] = system: reaction of rats to painful stimulation applied to an inflamed paw; test: Randall Selitto Test in the Rat; format: in vivo, Male Sprague Dawley rats; details: po, by gastric gavage, 24 hours after adjuvant, pain threshold 1 hour later, read-out: Randall Selitto, ED50 (dose which causes analgesia in 50% of the animals)
Source text: An additional test used to determine the utility of the compounds of the present invention is designated: Randall Selitto Test in the Rat
The objective of this test is to assess the potency of peripheral and central acting drugs in inhibiting the reaction of rats to painful stimulation applied to an inflamed paw.
Male Sprague Dawley rats (180-200 g) are used. The animals are fasted overnight prior to drug administration.
as §1
Freund's Complete Adjuvant (FCA) is prepared by suspending 5 mg killed and dried mycobacterium butyricum (Difco) in 1 mL mineral oil. The test compounds are dissolved or suspended in 0.5% Tween 80 in distilled water according to their solubility. They are administered by gastric gavage in a volume of 0.5 mL/100 g body weight to groups of 10 animals.
Ten rats are used per group. The method is essentially that described by Randall and Selitto, Arch. Int. Pharmacodyn. […] The force is continuously monitored by a pointer moving along a linear scale and is measured in grams. […] The pain threshold (vocalization) is determined 1 hour later in the inflamed paw of the treated and control groups. […]
Each animal which has a reading 1.5 times greater than the mean reading of the control-group will be considered as responsive (having an analgesic effect) to treatment. The number of animals showing an analgesic effect is then determined in each group. […]

Row | SMILES | ED50 (Adjuvant Edema; po, 72 h, p.o.) [mg/kg] | Phenylquinone Writhing in Mice, percent inhibition ([1]; 200 mg/kg p.o.) [percent inhibition] | Preventative Adjuvant Edema, percent inhibition (Adjuvant Edema) [percent inhibition] | Phenylquinone Writhing in Mice, percent inhibition ([1]; 10 mg/kg p.o.) [percent inhibition] | ED50 ([1]; po, 1 h, p.o., read-out: Phenylquinone Writhing in Mice, ED50) [mg/kg] | ED50 [2] [mg/kg]
1 | C=CCc1cccc2c3c([nH]c12)C(CC)(CC(=O)O)OCC3 (stereo not shown) [Example 2, 1-Ethyl-1,3,4,9-tetrahydro-8-(2-propenyl)-pyrano[3,4-b]-1-acetic Acid] | 9 | 42 |  |  |  | 
2 | C=CCc1cccc2c3c([nH]c12)C(CC)(CC(=O)O)OCC3C (single isomer, unassigned) [Example 3, 1-Ethyl-1,3,4,9-tetrahydro-4-methyl-8-(2-propenyl)-pyrano[3,4-b]indole-1-acetic Acid] |  |  | 57 | 20 |  | 
3 | C=CCc1c(F)ccc2c3c([nH]c12)C(CC)(CC(=O)O)OCC3 (stereo not shown) [Example 1, 1-Ethyl-7-fluoro-1,3,4,9-tetrahydro-8-(2-propenyl)-pyrano[3,4-b]indole-1-acetic Acid] |  |  | 83 |  | 54.7 | 0.7
